Laboratory results from US11938129B2, “Methods and compositions for the treatment of vascular disease” (THE GENERAL HOSPITAL CORPORATION, priority 2018, dated 2024).
“Also recorded” adds a separate entry of the source.

Columns and labels:
a-SMA and SM22a = assay: immunofluorescence of contractile proteins in ligated carotids; assay type: in vivo, mouse
Protocol: (§1) All mice used in this study were cared for under strict compliance with the Partners Institutional Animal Care and Use Committee (IACUC), regulated by the United States Public Health Service (USPHS). Carotid ligations were performed in 10 week old mice. Briefly, animals were anesthetized using intraperitoneal ketamine/xylazine (80 and 12 mg/kg, respectively) followed by a small incision in the neck to expose the carotid artery. Then the left carotid was ligated at the carotid bifurcation level using a 8-0 silk suture. At 21 days mice were sacrificed and carotids were collected for histological analysis. Approximately 98% of wild type mice developed stenotic lesions. Mice that developed thrombosis of the ligated carotid were excluded from the study (−1¬2%). Malatl knockout mice were kindly provided by Dr. David Spector (Cold Spring Harbor, N.Y.). Hdac9 flox/flox/Talgn-cre mice were generated as previously reported (10). Ezh2 fl/fl/ (STOCK Ezh2tm2Sho/J) and Myh11-cre-GFP (B6.Cg-Tg(Myh11-cre,-EGFP)2Mik/J) were crossed to generate smooth muscle cell-Ezh2 deficient mice. All above mice and wild-type mice (C57BL/6J) were purchased from Jackson laboratory. For tissue analysis, animals were euthanized through inhalational isoflurane (Sigma, St, Louis, Mo.) prior to tissue collection. All carotid ligation (left carotid) procedures were performed at 10 weeks of age. All experiments were performed on male and female animals at a 1:1 ratio.
Left and right carotids were cryosectioned using OCT standard protocol and sectioning. The right carotid artery was unligated and served as an internal control. Neoinitima analysis was performed from hematoxylin and eosin (H & E) stained horizontal cross-sections embedded in Optimal Cutting Temperature compound (OCT). Briefly, the distal 0.2 mm of carotid from the ligation suture site were discarded followed by generation of 20 slides (10 pM). Slides 1, 5, 10, and 15 were H&E stained for quantification of neointima. For quantification of the neointima, internal and external elastic lamina perimeters and medial thickness from 4 quadrants were measured and averaged using Image J software from the National Institutes of Health (NIH). Slides 2-4, 6-9, and 11-14 were used for immunofluorescence staining.
Cohorts of 10-week-old wild-type mice were treated with oral administration in drinking water of GSK343 24 hrs before left carotid ligation and following treatment for 3 weeks. GSK343 inhibitor (25 mg) was dissolved in 1 mL of DMSO to obtain a stock solution of 46 mM. Then, 250 ml of drinking water was supplemented with 250 pl of GSK343 stock solution. Control group for was given with equal volumes of sterile water. Bottles containing GSK343 were replaced with fresh water supplied with drug every 3 days. […]

Mmp9 = assay: immunofluorescence of Mmp9 in ligated carotid; assay type: in vivo, mouse; conditions: arterial media and intima of carotid arteries
Protocol: as §1, with “Ezh2 fl/fl/ (STOCK Ezh2tm2Sho/J) and Myh11-cre-GFP (B6.Cg-Tg(Myh11-cre,-EGFP)2Mik/J) were crossed to generate smooth muscle cell-Ezh2 deficient mice. All above mice and wild-type mice (C57BL/6J) were purchased from Jackson laboratory. For tissue analysis, animals were euthanized through inhalational isoflurane (Sigma, St, Louis, Mo.) prior to tissue collection. All carotid ligation (left carotid) procedures were performed at 10 weeks of age. All experiments were performed on male and female animals at a 1:1 ratio.” left out
Left and right carotids were cryosectioned using OCT standard protocol and sectioning. […] Slides 1, 5, 10, and 15 were H&E stained for quantification of neointima. For quantification of the neointima, internal and external elastic lamina perimeters and medial thickness from 4 quadrants were measured and averaged using Image J software from the National Institutes of Health (NIH). […]

[1] = test system: aortic aneurysm in Fbn1C1039G/+ mice; assay: experimental aortic aneurysm in Fbn1C1039G/+ mice: echocardiographic aortic dimensions; assay type: in vivo, mouse; conditions: Fbn1C1039G/+ mice treated from two to six months of life, drinking water
Text: Dimensions from each animal represent averages of measurements made on still frames in systole of the maximal internal diameter of the aortic valve annulus, aortic sinuses, sinotubular junction, or ascending aorta by a cardiologist blinded to genotype. The aorta was imaged using a standard parasternal long axis view. Based on historic controls, the mean diameter of the wild type aortic root at 4 months of life is 1.73+/-0.2 mm while in our disease model (Fbn1ci°[…]/+) the mean diameter is 2.15+/-0.3 mm. […] Nair hair removal cream was used on all mice the day prior to echocardiograms. All echocardiograms were performed on awake, unsedated mice using the Visualsonics Vevo imaging system and a 30 MHz transducer. All CT images were acquired using an Inveon small animal micro CT (Siemens Medical Solutions Inc., Malven, Pa.). All mice received intravenous iodinated contrast (Isovue-370, Bracco Diagnostic Inc.) at 20 pL/min during the scan. […] Images were visualized and analyzed in OsiriX software. Cohorts of 8-week-old wild-type or Fbn1cw3gGi+ mice were treated with oral administration in drinking water of either Losartan or GSK343 for 20 weeks (FIG. 5). […] Then 200 mL of drinking water was supplemented with 250 pL of GSK343 stock solution. […] Aortic dimensions were monitored monthly by echocardiograms as mentioned above.

[2] = test system: aortic wall of Fbn1C1039G/+ mice; assay: histologic analysis of aortas of treated Fbn1C1039G/+ mice; assay type: in vivo, mouse; conditions: aortas of Fbn1C1039G/+ mice treated from two to six months
Protocol: (§2) Latex was injected into the left ventricular apex under low pressure until it was visible in the femoral artery. Animals were then fixed in Formalin (10%) for 24 hours before transfer to 70% ethanol for dissection and storage. Aortas were then removed from the animals or dissected in situ for photography prior to paraffinization and sectioning (10 pM). Slides were produced for tissue staining or stained with standard stains including H&E staining, collagen deposition (Trichrome Stain (Masson) Kit, Sigma, USA), elastin (Verhoeff-Van Gieson, Thermo Scientific, MI, USA) or F-actin (ActinGreen™ 488 ReadyProbes, ThermoFisher Scientific, USA) for quantitative analysis. Elastin integrity score was rated by blinded observers and graded on an arbitrary scale of 5 (indicating high quality elastic fiber) to 1 (indicating severe elastin fragmentation). For nuclear staining aortas from human and mice were cryosectioned using OCT standard protocol as described previously (Fischer et al., 2008). Cohorts of 8-week-old wild-type or Fbn1cw3gGi+ mice were treated with oral administration in drinking water of either Losartan or GSK343 for 20 weeks (FIG. 5). […] Then 200 mL of drinking water was supplemented with 250 pL of GSK343 stock solution. Control group for either drug treatment was given with equal volumes of sterile water. Bottles containing either losartan or GSKS343 were replaced with fresh water supplied with drugs every 3 days. For experiments described in FIG. 5A-5C, 16-week-old wild-type or Fbnicw3gGi+ mice were treated for 8 weeks and as described above. Additionally, a group of mice were given a combination of both losartan and GSK343 at the same concentrations as of other single drug treatments. Aortic dimensions were monitored monthly by echocardiograms as mentioned above.

H3K27me3 = H3K27me3 staining in aortas of treated Fbn1C1039G/+ mice; assay type: in vivo, mouse; conditions: compared to control or losartan treated mice
Protocol: as §2, with “Control group for either drug treatment was given with equal volumes of sterile water. Bottles containing either losartan or GSKS343 were replaced with fresh water supplied with drugs every 3 days. For experiments described in FIG. 5A-5C, 16-week-old wild-type or Fbnicw3gGi+ mice were treated for 8 weeks and as described above. Additionally, a group of mice were given a combination of both losartan and GSK343 at the same concentrations as of other single drug treatments.” left out

[3] = test system: other histone methyltransferases; conditions: cited from earlier work

In the case of CCCc1cc(C)[nH]c(=O)c1CNC(=O)c1cc(-c2ccnc(N3CCN(C)CC3)c2)cc2c1cnn2C(C)C [GSK343], the “expression of α-SMA in carotid VSMCs” value (a-SMA and SM22a; ligated carotid, in contrast to carotid VSMCs in wild type animals) is reported as “robust expression”, the “expression of contractile proteins such as a-SMA and SM22a” value (a-SMA and SM22a; ligated carotids of treated mice) is reported as “improved the expression of contractile proteins” and the “accumulation of Mmp9” value (Mmp9) is reported as “decreased accumulation”. For the same molecule, the aortic dimensions [1] was “ability to improve aortic dimensions”, the “aortic architecture and filamentous actin content” value [2] was “improvement” and the elastin integrity [2] was “not a significant improvement in elastin fiber integrity”. For the same molecule, the “H3K27me3 staining / aortic medial H3K27me3 modifications” value (H3K27me3) was “significant suppression of H3K27me3 staining; also recorded: significantly decreased” and the “selectivity against other histone methyltransferases” value [3] was ≥ 1000 fold.
